Values of other authors in publication PMC10046020, “In Silico Screening and Optimization of Cell-Penetrating Peptides Using Deep Learning Methods” (Biomolecules, 2023).

Details: Spreadsheet S1: 150 CPP and 150 non-CPP peptides collected from CellPPD, MLCPP, CPPsite 2.0, Lifetein and other publications; cited from earlier work
Text: Supplement biomolecules-13-00522-s001.zip/biomolecules-2162660_Supplementary Spreadsheets S1 Test Set.csv, table | column: class || Supplement biomolecules-13-00522-s001.zip/biomolecules-2162660_Supplementary Spreadsheets S2 Train Set.csv, table | column: class

Substance	class (CPP / Non-CPP), Test Set
GMNCSREYAHCTSAYV	Non-CPP
PVVHLTLRQAGDDFSR	Non-CPP
TTPFTIRGPLGNQGRGNPVR	Non-CPP
KETWWETWWTEWSQPKKRKV	CPP
ACRGRGRGCGRGRGRCG	CPP
GDCLPHLKLCKENKGCCSKKCKRRGTNIEKRCR	CPP
FKCRRWQWRMKKLG	CPP
IAARIFLRSRQHIKLRHL	Non-CPP
KKKQYTWIHHGVVEVD	Non-CPP
KNLRRIIRKGIHIIKKYF	CPP
FDPYALSEHDEERPQNVQSKSRTAELQAEIDDTVGI	Non-CPP
KKLSECLKRIGDELDS	Non-CPP
FGCKNFFWKTFTSC	Non-CPP
ARRRRCSDRFRNCPADEALCGRRRR	CPP
RRRRRRRRRETWWETWWTEW	CPP
KKRTLRKNDRKKRC	CPP
NSDMAHERKFMWQYNR	Non-CPP
SRISNRLSSSATRT	Non-CPP
KDCERRFSRSDQLKRHQRRHTGVKPFQK	CPP
ARRRCSDRFRNCPADEALCGRRR	CPP
TRTSRGWHTTDLKYN	Non-CPP
RRLRHLRHHYRRRWHRFR	CPP
IAARIKLRSRQHIKLRHL	Non-CPP
QWGYGGMPYGGYGGMGGYGMGGYGMGY	Non-CPP

Substance	class (CPP / Non-CPP), Test Set
RLRLRLRLRLRLRLRLKLLKLLKLLKLLKKKKKKKGYK	CPP
KLALKALKAALKPA	Non-CPP
MDMVAIDDQDYIMCHF	Non-CPP
RFTFHFRFEFTFHFE	CPP
QSGAKPGHCEWQSTHLKNCEKVNDIRQPPHHQRS	Non-CPP
CGGGRRRRRRRRRLLLL	CPP
LKKLAELAHKLLKLG	CPP
IDLNITMLEDHEFVP	Non-CPP
RHHLRHLRRHLRHLLRHLRHHLRHLRRHLRHLL	CPP
FQAYPCITAYKVMYID	Non-CPP
KLAKLAKKLAKLAK	CPP
APKRKSGVSK	CPP
GGVCPKILRRCRRDSDCPGACICRGNGYCGSGSD	CPP
CVKLNDGHFMPVLGFGTYAPPEVPRSKALEVTKLA	Non-CPP
RPKRPTTLNLFPQVPRSQDT	CPP
NAKTRRHERRRKLAIER	CPP
ICITRRSICMVTCNKEWPQNRNAHTFLI	Non-CPP
CREKAKKLFKKILKKL	CPP
VGALAVVVWLWLWLWAGSGPKKKRKVC	CPP
CVCVKTTSLVRPRHI	Non-CPP
AGYLLGKTNLKALAALAKKIL	CPP
KKKKKKKKLLLLLLLL	Non-CPP
TPTSPSSPGLSPVPPPDKVDGFSRRSLRRARPRR	Non-CPP
INWLKLGKAIIDAL	Non-CPP

Same assay, conditions: cited from earlier work

Substance	class (CPP / Non-CPP), Test Set
IKRYLIKR	Non-CPP
HHHHHHHHH	CPP
QGARNYKCCFAWC	Non-CPP
RLLRLLRLL	CPP
QNLGNQWAVGHLM	Non-CPP
CDAGRKQKC	CPP
TWLKYH	CPP
CARSKNKDC	CPP
QIFWDSRHPSQH	Non-CPP
NTCTWLKY	CPP
FKMHEN	Non-CPP
REDEDEIEW	CPP
RRRRRRRHHH	CPP
